Assay [1] addresses Plasminogen (Homo sapiens) (UniProt P00747). The assay is described as follows: Compound was tested for percentage inhibition of plasmin in enzyme rate assays; NI denotes no significant inhibition at 100 uM.
Assay [2] addresses Urokinase-type plasminogen activator (Homo sapiens) (UniProt P00749). The assay is described as follows: Compound was tested for percentage inhibition of urokinase in enzyme rate assays; NI denotes no significant inhibition at 100 uM.
Assay [3] has as its target Plasminogen (Homo sapiens) (UniProt P00747). As to the kind of experiment: Compound was tested for percentage inhibition of plasmin in enzyme rate assays. The conditions noted are these: concentration not given here.
Assay [4] deals with Urokinase-type plasminogen activator (Homo sapiens) (UniProt P00749). The assay is described as follows: Compound was tested for percentage inhibition of urokinase in enzyme rate assays. The note with it: concentration not given here.

The text below walks through data of ChEMBL document CHEMBL1134891, “Design and synthesis of conformationally restricted eight-Membered ring diketones as potential serine protease inhibitors” (Bioorg Med Chem Lett, 2002).

As usually defined, the inhibition is the share of the control response that was lost under treatment.

Chain of Plasminogen (Homo sapiens) (P00747 97-580 limits assumed): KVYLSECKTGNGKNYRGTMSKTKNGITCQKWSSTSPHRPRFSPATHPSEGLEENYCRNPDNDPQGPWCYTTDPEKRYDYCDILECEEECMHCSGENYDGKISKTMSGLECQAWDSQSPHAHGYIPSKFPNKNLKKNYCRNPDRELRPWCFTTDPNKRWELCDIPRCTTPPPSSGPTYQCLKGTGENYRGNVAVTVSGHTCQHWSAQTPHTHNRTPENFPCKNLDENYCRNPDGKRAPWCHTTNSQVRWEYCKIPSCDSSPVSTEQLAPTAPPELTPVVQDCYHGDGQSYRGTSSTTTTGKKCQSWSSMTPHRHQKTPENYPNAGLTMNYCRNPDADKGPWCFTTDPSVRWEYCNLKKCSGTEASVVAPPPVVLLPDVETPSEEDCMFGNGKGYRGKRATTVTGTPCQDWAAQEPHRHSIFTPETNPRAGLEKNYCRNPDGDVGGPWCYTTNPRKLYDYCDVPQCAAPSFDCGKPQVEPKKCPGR
Chain of Plasminogen (Homo sapiens) (P00747 581-810 limits assumed): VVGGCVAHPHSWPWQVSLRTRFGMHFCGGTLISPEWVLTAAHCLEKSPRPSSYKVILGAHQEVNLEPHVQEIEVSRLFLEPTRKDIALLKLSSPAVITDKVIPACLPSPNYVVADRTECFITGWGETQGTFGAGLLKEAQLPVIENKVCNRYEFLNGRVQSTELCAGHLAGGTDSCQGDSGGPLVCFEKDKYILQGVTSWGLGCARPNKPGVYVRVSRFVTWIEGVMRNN

For the molecule `CC[C@]1(C)CC[C@]2(C)[C@H](C)CC[C@]3(CCC(=O)[C@H]32)C(=O)C1=O`, the inhibition result in assay [1] and in assay [2] was “No inhibition” in each case.

Take `CC(=O)N[C@]1(C)CC[C@]2(C)[C@H](C)CC[C@]3(CCC(=O)[C@H]32)C(=O)C1=O`: the inhibition in assay [3] worked out at 25%; in assay [4] it was 28%.
